This note sets out measurements from ChEMBL document CHEMBL3421590, “Pancreatic lipase inhibitory constituents from Morus alba leaves and optimization for extraction conditions” (Bioorg Med Chem Lett, 2015).

SMILES strings stand for the structures. A value given as a limit tells only on which side of the number the result lay.

The target of test [1] is T1, Pancreatic triacylglycerol lipase (Sus scrofa) (UniProt P00591).
T1 sequence (whole entry): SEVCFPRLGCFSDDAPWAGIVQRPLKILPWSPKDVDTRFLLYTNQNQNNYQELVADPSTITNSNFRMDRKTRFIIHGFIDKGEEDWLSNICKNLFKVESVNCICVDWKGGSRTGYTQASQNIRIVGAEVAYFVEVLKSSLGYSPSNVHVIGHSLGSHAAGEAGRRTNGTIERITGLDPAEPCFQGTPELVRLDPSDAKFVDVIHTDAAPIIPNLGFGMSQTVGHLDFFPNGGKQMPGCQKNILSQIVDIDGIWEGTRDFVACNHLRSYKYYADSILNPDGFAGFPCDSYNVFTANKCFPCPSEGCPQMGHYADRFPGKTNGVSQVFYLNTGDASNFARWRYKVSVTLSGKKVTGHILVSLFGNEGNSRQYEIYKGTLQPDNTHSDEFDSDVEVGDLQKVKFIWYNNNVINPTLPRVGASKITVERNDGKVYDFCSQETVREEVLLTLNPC
The test is described as follows: Inhibition of porcine pancreatic lipase using p-nitrophenylbutyrate as substrate assessed as formation of p-nitrophenol at 100 uM preincubated for 15 mins followed by substrate addition measured after 15 mins relative to control.

Test [2] addresses T2, Pancreatic triacylglycerol lipase (Sus scrofa, UniProt P00591).
T2 sequence (P00591 whole entry): T1 sequence (whole entry)
Briefly: Inhibition of porcine pancreatic lipase using p-nitrophenylbutyrate as substrate assessed as formation of p-nitrophenol preincubated for 15 mins followed by substrate addition measured after 15 mins.

The term inhibition denotes the percentage by which the read-out fell short of the control. The IC50 is the concentration that gives 50% inhibition. `Oc1cc(O)cc(-c2cc3cc4ccoc4cc3o2)c1`: in test [1], the inhibition worked out at 31.7%. Further, the IC50 in test [2] is more than 70 µM.

For the molecule `COc1ccc(-c2oc3cc(O)cc(O)c3c(=O)c2OC2O[C@H](CO)[C@@H](O)[C@H](O)[C@H]2O)cc1` (some centres undefined), in test [1], the inhibition was 12.1%. Also, in test [2], the IC50 is more than 70 µM.

In the case of `O=C1CC(c2ccc(O)cc2O)Oc2cc(O)ccc21` (centres undefined), the inhibition in test [1] is 69.6%. Also, the IC50 in test [2] stood at 56.4 µM.

As for `Oc1cc(O)cc(-c2cc3ccc(O)c(O)c3o2)c1`, in test [1], the inhibition worked out at 55.9%. The IC50 in test [2] stood at 63 µM.

In the case of `Oc1cc(O)cc(-c2cc3cc(O)c(O)cc3o2)c1`, the inhibition in test [1] amounted to 59.1%. The IC50 in test [2] was 64.8 µM.

For the molecule `CC1(C)C=Cc2cc3cc(-c4cc(O)cc(O)c4)oc3cc2O1`, the inhibition in test [1] was found to be 67.9%. In test [2], the IC50 came to 29.2 µM.

For the molecule `O=c1c(O)c(-c2ccc(O)c(O)c2)oc2cc(O)cc(O)c12`, in test [1], the inhibition was 36.3%.

With `CC(C)=CCC/C(C)=C/Cc1c(O)cc(O)cc1-c1cc2ccc(O)cc2o1` [ALBAFURAN A], the inhibition in test [1] is 45.4%. Besides, the IC50 in test [2] is more than 70 µM.

Take `O=c1c(O[C@@H]2O[C@H](CO)[C@@H](O)[C@H](O)[C@H]2O)c(-c2ccc(O)cc2)oc2cc(O)cc(O)c12` [ASTRAGALIN]: in test [1], the inhibition turned out to be 10.8%. For the same molecule, the IC50 in test [2] is more than 70 µM.

`O=c1c(O[C@@H]2O[C@H](CO)[C@@H](O)[C@H](O)[C@H]2O)c(-c2ccc(O)c(O)c2)oc2cc(O)cc(O)c12` [ISOQUERCETIN]: the inhibition in test [1] stood at 12.6%. Further, the IC50 in test [2] is more than 70 µM.

In the case of `COc1cc(-c2oc3cc(O)cc(O)c3c(=O)c2O)ccc1O` [ISORHAMNETIN], in test [1], the inhibition stood at 32.4%. Moreover, the IC50 in test [2] is more than 70 µM.

Consider `O=c1c(O)c(-c2ccc(O)cc2)oc2cc(O)cc(O)c12` [KAEMPFEROL], for which, in test [1], the inhibition is 50.3%. Besides, the IC50 in test [2] is more than 70 µM.

With `CC(C)=CCc1c(-c2ccc(O)cc2O)oc2c(CC=C(C)C)c(O)cc(O)c2c1=O` [KUWANON C], in test [1], the inhibition stood at 72.5%. In test [2], the IC50 is 18.6 µM.

In the case of `CC(C)=CCc1c(O)ccc(C(=O)/C=C/c2ccc(O)cc2O)c1O` [MORACHALCONE A], the inhibition in test [1] is 73%. Further, the IC50 in test [2] was found to be 6.2 µM.

Take `CC(C)=CCc1c(O)cc(-c2cc3ccc(O)cc3o2)cc1O` [MORACIN C]: the inhibition in test [1] stood at 64.8%. Besides, the IC50 in test [2] was 32 µM.

For `Oc1cc(O)cc(-c2cc3ccc(O)cc3o2)c1` [MORACIN M], the inhibition in test [1] was determined as 21.5%. Besides, the IC50 in test [2] was more than 70 µM.

On to `CC(C)=CCc1cc2cc(-c3cc(O)cc(O)c3)oc2cc1O` [MORACIN N], for which the inhibition in test [1] was found to be 61.7%. Besides, in test [2], the IC50 was 29.7 µM.

As to `O=c1cc(-c2ccc(O)cc2O)oc2cc(O)cc(O)c12` [NORARTOCARPETIN], the inhibition in test [1] was 45.3%. In addition, in test [2], the IC50 is more than 70 µM.

As for `Oc1cc(O)cc(/C=C/c2ccc(O)cc2O)c1` [OXYRESVERATROL], the inhibition in test [1] was 28.8%. Moreover, the IC50 in test [2] is more than 70 µM.

Take `O=C1CC(c2ccc(O)cc2O)Oc2cc(O)cc(O)c21` (centres undefined) [STEPPOGENIN]: the inhibition in test [1] is 4.4%. Besides, the IC50 in test [2] was more than 70 µM.
